Experimental data from PubChem BioAssay AID256 (DTP/NCI, 2004).
Where “and” joins values, the source holds several entries; their conditions need not be identical. Equal values may be shown once. Inconclusive results and toxic doses are left out.

Tested on: CD2F1 mice, L1210 leukemia ip, survival T/C
Test: NCI In Vivo Anticancer Drug Screen. Data for tumor model L1210 Leukemia (intraperitoneal) in CD2F1 (CDF1) mice
Conditions: endpoint: mean survival time, higher = longer survival
Outline: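 Compound-dosed mice with transplantable tumor versus matched vehicle controls; endpoint ratio T/C reported.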

[1] = dose: 100.0 mg/kg/injection, schedule: Q01DX009 (ip), vehicle: other
[2] = dose: 100.0 mg/kg/injection, schedule: Q01DX009 (ip), vehicle: saline with Tween-80
[3] = dose: 100.0 mg/kg/injection, schedule: Q04DX003 (ip), vehicle: saline with Tween-80
[4] = dose: 200.0 mg/kg/injection, schedule: Q01DX009 (ip), vehicle: saline with Tween-80
[5] = dose: 200.0 mg/kg/injection, schedule: Q04DX003 (ip), vehicle: saline with Tween-80
[6] = dose: 400.0 mg/kg/injection, schedule: Q01DX009 (ip), vehicle: saline with Tween-80
[7] = dose: 400.0 mg/kg/injection, schedule: Q04DX003 (ip), vehicle: saline with Tween-80
[8] = dose: 100.0 mg/kg/injection, schedule: Q01DX001 (ip), vehicle: saline with Tween-80
[9] = dose: 200.0 mg/kg/injection, schedule: Q01DX001 (ip), vehicle: saline with Tween-80
[10] = dose: 100.0 mg/kg/injection, schedule: Q04DX002 (ip), vehicle: saline with Tween-80
[11] = dose: 200.0 mg/kg/injection, schedule: Q04DX002 (ip), vehicle: saline with Tween-80

**Q.** `ClC1C(Cl)C(Cl)C(Cl)C(Cl)C1Cl` (stereo not given) was tested. Which T/C (dose: 10.0 mg/kg/injection, schedule: Q01DX009 (ip), vehicle: saline with Tween-80) did it give?
**A.** 104 % of control

**Q.** And the T/C (dose: 20.0 mg/kg/injection, schedule: Q01DX009 (ip), vehicle: saline with Tween-80)?
**A.** 105 % of control

**Q.** What about the T/C (dose: 40.0 mg/kg/injection, schedule: Q01DX009 (ip), vehicle: saline with Tween-80) of the same compound?
**A.** 100 % of control

**Q.** What about the T/C [1] of the same compound?
**A.** 102 % of control

**Q.** What about the T/C (dose: 100.0 mg/kg/injection, schedule: Q04DX003 (ip), vehicle: Klucel (hydroxypropylcellulose) (HPC)) of the same compound?
**A.** 102 % of control

**Q.** What about the T/C (dose: 200.0 mg/kg/injection, schedule: Q01DX009 (ip), vehicle: other) of the same compound?
**A.** 96 % of control

**Q.** What about the T/C (dose: 200.0 mg/kg/injection, schedule: Q04DX003 (ip), vehicle: Klucel (hydroxypropylcellulose) (HPC)) of the same compound?
**A.** 107 % of control

**Q.** What about the T/C (dose: 400.0 mg/kg/injection, schedule: Q04DX003 (ip), vehicle: Klucel (hydroxypropylcellulose) (HPC)) of the same compound?
**A.** 102 % of control

**Q.** What does the source list for `O=C(O)C(F)(F)C(F)(F)C(F)(F)C(F)=C(F)F`?
**A.** T/C (dose: 75.0 mg/kg/injection, schedule: Q01DX001 (ip), vehicle: saline): 103 % of control; T/C (dose: 150.0 mg/kg/injection, schedule: Q01DX001 (ip), vehicle: saline): 101 % of control

**Q.** How did the T/C (dose: 5.0 mg/kg/injection, schedule: Q01DX001 (ip), vehicle: saline) turn out when `CC#CC#CC(=O)c1ccccc1` was run?
**A.** 97 % of control

**Q.** And the T/C (dose: 10.0 mg/kg/injection, schedule: Q01DX001 (ip), vehicle: saline)?
**A.** 100 % of control

**Q.** With `Nc1ccn(C2OC(COC(=O)C34CC5CC(CC(C5)C3)C4)C(O)C2O)c(=O)n1` (stereo not given) as the compound, how does the T/C (dose: 12.5 mg/kg/injection, schedule: Q01DX009 (ip), vehicle: other) read?
**A.** 201 % of control

**Q.** What about the T/C (dose: 25.0 mg/kg/injection, schedule: Q01DX009 (ip), vehicle: other) of the same compound?
**A.** 282 % of control

**Q.** What about the T/C (dose: 50.0 mg/kg/injection, schedule: Q01DX009 (ip), vehicle: other) of the same compound?
**A.** 365 % of control

**Q.** What about the T/C [1] of the same compound?
**A.** 253 % of control

**Q.** Which T/C [2] does the source give for `S=C1NCCO1` here?
**A.** 100 % of control and 95 % of control

**Q.** What about the T/C [3] of the same compound?
**A.** 95 % of control

**Q.** What about the T/C [4] of the same compound?
**A.** 91 % of control and 97 % of control

**Q.** And the T/C [5]?
**A.** 93 % of control

**Q.** And the T/C [6]?
**A.** 112 % of control

**Q.** And the T/C [7]?
**A.** 104 % of control

**Q.** With `C#CCP(=O)(OCC)OCC` as the compound, how does the T/C (dose: 100.0 mg/kg/injection, schedule: Q01DX009 (ip), vehicle: saline) read?
**A.** 95 % of control

**Q.** And the T/C (dose: 200.0 mg/kg/injection, schedule: Q01DX009 (ip), vehicle: saline)?
**A.** 95 % of control

**Q.** What about the T/C (dose: 400.0 mg/kg/injection, schedule: Q01DX009 (ip), vehicle: saline) of the same compound?
**A.** 94 % of control

**Q.** `Cc1nc(N)[nH]c(=O)c1CCCN(c1ccccc1)S(=O)(=O)c1ccc(N)cc1` was tested. Which T/C [8] did it give?
**A.** 101 % of control

**Q.** And the T/C [9]?
**A.** 89 % of control

**Q.** And the T/C (dose: 400.0 mg/kg/injection, schedule: Q01DX001 (ip), vehicle: saline with Tween-80)?
**A.** 89 % of control

**Q.** What does the source list for `CC12CCC=CC1=CC(=O)CC2` (stereo not given)?
**A.** T/C [10]: 96 % of control; T/C [11]: 100 % of control; T/C (dose: 400.0 mg/kg/injection, schedule: Q04DX002 (ip), vehicle: saline with Tween-80): 124 % of control

**Q.** With `CN1C(=O)C2CCC1C(O)C2` (stereo not given) as the compound, how does the T/C (dose: 25.0 mg/kg/injection, schedule: Q04DX002 (ip), vehicle: saline with Tween-80) read?
**A.** 98 % of control

**Q.** And the T/C (dose: 50.0 mg/kg/injection, schedule: Q04DX002 (ip), vehicle: saline with Tween-80)?
**A.** 106 % of control

**Q.** What about the T/C [10] of the same compound?
**A.** 98 % of control

**Q.** What about the T/C [11] of the same compound?
**A.** 95 % of control

**Q.** `O=C(O)CCCCCCCCCCCCCCCCCCCCC(=O)O` was tested. Which T/C [3] did it give?
**A.** 87 % of control

**Q.** What about the T/C [5] of the same compound?
**A.** 102 % of control

**Q.** What about the T/C [7] of the same compound?
**A.** 87 % of control

**Q.** How did the T/C (dose: 6.25 mg/kg/injection, schedule: Q01DX009 (ip), vehicle: saline with Tween-80) turn out when `CCCCC(CCCC)c1ccccn1` was run?
**A.** 91 % of control

**Q.** And the T/C (dose: 12.5 mg/kg/injection, schedule: Q01DX009 (ip), vehicle: saline with Tween-80)?
**A.** 96 % of control

**Q.** What about the T/C (dose: 25.0 mg/kg/injection, schedule: Q01DX009 (ip), vehicle: saline with Tween-80) of the same compound?
**A.** 96 % of control

**Q.** `Cc1cc2nc(-c3ccccc3)c(-c3ccccc3)nc2cc1C` was tested. Which T/C [2] did it give?
**A.** 92 % of control

**Q.** And the T/C [3]?
**A.** 94 % of control

**Q.** And the T/C [4]?
**A.** 92 % of control

**Q.** What about the T/C [5] of the same compound?
**A.** 91 % of control

**Q.** And the T/C [6]?
**A.** 93 % of control

**Q.** And the T/C [7]?
**A.** 95 % of control

**Q.** `COc1cccc(CNc2ncnc3nc[nH]c23)c1` was tested. Which T/C [3] did it give?
**A.** 92 % of control

**Q.** And the T/C [5]?
**A.** 91 % of control

**Q.** What about the T/C [7] of the same compound?
**A.** 97 % of control

**Q.** Which T/C [8] does the source give for `NS(=O)(=O)c1ccc(Cl)c2ccccc12` here?
**A.** 93 % of control

**Q.** What about the T/C [9] of the same compound?
**A.** 98 % of control

**Q.** Which T/C (dose: 100.0 mg/kg/injection, schedule: Q01DX001 (ip), vehicle: saline) does the source give for `CCC(N)C(O)C(C)C` (stereo not given) here?
**A.** 105 % of control

**Q.** And the T/C (dose: 200.0 mg/kg/injection, schedule: Q01DX001 (ip), vehicle: saline)?
**A.** 90 % of control

**Q.** And the T/C (dose: 400.0 mg/kg/injection, schedule: Q01DX001 (ip), vehicle: saline)?
**A.** 96 % of control
